Measurements reported in the supplement of paper PMC9938120.

Key:
Assay in all cases: drug sensitivity score (DSS3, normalised partial AUC of % inhibition dose-response) (DSS (score)); higher = more sensitive (stronger inhibition of viability); extreme values may be limits of the assay
[1] = system: FMOC22 (patient-derived mucinous ovarian cancer cells); conditions: 72 h; library: FO5A; assay format: 2D, 384-well, CellTiter-Glo
Method in brief: (§1)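 Early-passage (under 10) patient-derived ovarian cancer cells were dispensed onto 384-well flat clear-bottom plates pre-plated with compounds at five concentrations spanning a 10,000-fold range, then incubated 72 h at 37 °C, 5% CO2. Viability was read with CellTiter-Glo, and the data were processed in Breeze. The drug sensitivity score is a partial area under the percent-inhibition dose-response curve divided by the log of the upper asymptote, with higher values meaning greater sensitivity.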

[2] = system: FMOC25_1 (patient-derived low-grade serous ovarian cancer cells); conditions: 72 h; library: FO4B; assay format: 2D, 384-well, CellTiter-Glo
Method in brief: as §1

[3] = system: FMOC02_3 (patient-derived low-grade serous ovarian cancer cells); conditions: 72 h; library: FO5A; assay format: 2D, 384-well, CellTiter-Glo
Method in brief: as §1

[4] = system: FMOC09 (patient-derived high-grade serous ovarian cancer cells); conditions: 72 h; library: FO5A; assay format: 2D, 384-well, CellTiter-Glo
Method in brief: as §1

[5] = system: FMOC03 (patient-derived mucinous ovarian cancer cells); conditions: 72 h; library: FO5A; assay format: 2D, 384-well, CellTiter-Glo
Method in brief: as §1

[6] = system: FMOC02_2 (patient-derived low-grade serous ovarian cancer cells); conditions: 72 h; library: FO5A; assay format: 2D, 384-well, CellTiter-Glo
Method in brief: as §1

[7] = system: FMOC06 (patient-derived mucinous ovarian cancer cells); conditions: 72 h; library: FO5A; assay format: 2D, 384-well, CellTiter-Glo
Method in brief: as §1

[8] = system: FMOC25_2 (patient-derived low-grade serous ovarian cancer cells); conditions: 72 h; library: FO5A; assay format: 2D, 384-well, CellTiter-Glo
Method in brief: as §1

[9] = system: FMOC14 (patient-derived high-grade serous ovarian cancer cells); conditions: 72 h; library: FO5A; assay format: 2D, 384-well, CellTiter-Glo
Method in brief: as §1

[10] = system: FMOC24 (patient-derived high-grade serous ovarian cancer cells); conditions: 72 h; library: FO5A; assay format: 2D, 384-well, CellTiter-Glo
Method in brief: as §1

| SMILES | drug sensitivity score [1] | drug sensitivity score [2] | drug sensitivity score [3] | drug sensitivity score [4] | drug sensitivity score [5] | drug sensitivity score [6] | drug sensitivity score [7] | drug sensitivity score [8] | drug sensitivity score [9] | drug sensitivity score [10] |
| --- | --- | --- | --- | --- | --- | --- | --- | --- | --- | --- |
| CC(C)Nc1cc(-c2c[nH]c(C(=O)N[C@H](CO)c3cccc(Cl)c3)c2)c(Cl)cn1 [Ulixertinib] | 7.5 | 12.3 | 13.1 | 6.7 | 10 | 10.6 | 11.4 | 10.6 | 0.6 | 0.05 |
| N#CCNC(=O)c1ccc(-c2ccnc(Nc3ccc(N4CCOCC4)cc3)n2)cc1 [Momelotinib] | 3.2 | 5.4 | 9.9 | 1.2 | 2.4 | 6 | 2.7 | 9.3 | 1.7 | 5.95 |
| COc1cccc2c1C(=O)c1c(O)c3c(c(O)c1C2=O)C[C@@](O)(C(C)=O)C[C@@H]3O[C@H]1C[C@H](N)[C@H](O)[C@H](C)O1 [Daunorubicin] | 4.9 | 10.1 | 9.7 | 6.4 | 4.6 | 6.7 | 6.4 | 7.7 | 5.8 | 7.6 |
| Cn1ncc(Cl)c1-c1cc(C(=O)N[C@H](CN)Cc2ccc(F)c(F)c2)oc1Cl [Uprosertib] | 0.7 | 3.5 | 13.7 | 0 | 0 | 13.1 | 4.3 | 4.1 | 3.5 | 1.35 |
| COc1cc2ncnc(Nc3ccc(F)c(Cl)c3)c2cc1NC(=O)/C=C/CN1CCCCC1 [Dacomitinib] | 1.7 | 7.8 | 18 | 16.1 | 18.2 | 20.4 | 5.5 | 18.6 | 4.6 | 0.3 |
| Nc1cc(C(F)(F)F)c(-c2cc(N3CCOCC3)nc(N3CCOCC3)n2)cn1 [Buparlisib] | 6.3 | 11.5 | 13.3 | 6.7 | 8.6 | 11.7 | 8.7 | 10.8 | 4.2 | 2.25 |
| C=CC(=O)Nc1cc2c(Nc3ccc(F)c(Cl)c3)ncnc2cc1OCCCN1CCOCC1 [Canertinib] | 8 | 10 | 18.7 | 20.8 | 20.6 | 21.8 | 9 | 14.6 | 9.5 | 5.3 |
| Cn1cc(CNCC2CCN(c3ncc(C(=O)NO)cn3)CC2)c2ccccc21 [Quisinostat] | 8.1 | 9.9 | 10.8 | 4.8 | 10.3 | 10.9 | 9.4 | 11.2 | 10.7 | 13.6 |
| C=CC(=O)Nc1cc(Nc2nccc(-c3cn(C)c4ccccc34)n2)c(OC)cc1N(C)CCN(C)C [Osimertinib] | 3.3 | 7.3 | 12 | 11.3 | 11.7 | 15 | 4 | 11.2 | 6.1 | 4.35 |
| Cc1nc(Nc2n[nH]c3c2CN(C(=O)N[C@H](CN(C)C)c2ccccc2)C3(C)C)c2sccc2n1 | 10.5 | 16.7 | 20.9 | 10.2 | 10.6 | 12.8 | 13.7 | 26.6 | 6.5 | 8.1 |
| COc1ccc(-c2ccc3c(N4CCOC[C@@H]4C)nc(N4CCOC[C@@H]4C)nc3n2)cc1CO [AZD8055] | 17.4 | 30.9 | 29.9 | 14.5 | 20.7 | 28.6 | 20.3 | 28.8 | 16.2 | 13.3 |
| CC(C)c1cc(C(=O)N2Cc3ccc(CN4CCN(C)CC4)cc3C2)c(O)cc1O [Onalespib] | 8.1 | 12 | 14 | 9 | 12.2 | 12.6 | 6 | 15.4 | 9 | 5.45 |
| CC[C@@]1(O)C(=O)OCc2c1cc1n(c2=O)Cc2cc3c(CN(C)C)c(O)ccc3nc2-1 [Topotecan] | 15.6 | 12.7 | 15.3 | 8.4 | 8.1 | 9.7 | 8.2 | 16.8 | 9.4 | 7 |
| CC[C@H](NC(=O)[C@H](C)NC)C(=O)N1C[C@@H](O)C[C@H]1Cc1c(-c2[nH]c3cc(F)ccc3c2C[C@@H]2C[C@H](O)CN2C(=O)[C@H](CC)NC(=O)[C@H](C)NC)[nH]c2cc(F)ccc12 [Birinapant] | 0 | 1.1 | 0 | 0 | 0 | 0 | 3.9 | 8.3 | 4.5 | 21.2 |
| O=C(Nc1cccc(NC(=O)c2cccc(O)c2O)c1)c1cccc(O)c1O [MST-312] | 10.1 | 4.5 | 7.7 | 9.7 | 6.2 | 2.7 | 5.7 | 2.4 | 8.2 | 5.55 |
| O=C(/C=C\n1cnc(-c2cc(C(F)(F)F)cc(C(F)(F)F)c2)n1)NNc1ccccn1 [Verdinexor] | 8.6 | 6.2 | 9.2 | 7.6 | 8.2 | 9.4 | 11.2 | 11.9 | 6 | 11.2 |
| CC(C)Oc1ccc(C(=O)N[C@H](CNC(=O)CN(C)C)Cc2ccc(-c3cn4cccc([C@H](C)O)c4n3)cc2)cc1Cl | 5.7 | 3.3 | 11.9 | 7.3 | 5.5 | 3.8 | 2.7 | 8.8 | 3.5 | 4.8 |
| CCN(CC)CCOc1ccc(C(=C(Cl)c2ccccc2)c2ccccc2)cc1 [Clomifene] | 4.8 | 4.7 | 9.1 | 5 | 7 | 8.2 | 5.6 | 7.2 | 5 | 9.9 |
| COc1ccc(-c2nc(N3CCOCC3)c3sc(CN(C)c4ncc(C(=O)NO)cn4)cc3n2)cn1 [CUDC-907] | 31.1 | 29.2 | 33.2 | 18.4 | 32.8 | 34.3 | 31.2 | 29.1 | 31.4 | 33.7 |
| Cc1nc(-c2cn3c(n2)-c2ccc(-c4cnn(C(C)(C)C(N)=O)c4)cc2OCC3)n(C(C)C)n1 [Taselisib] | 2.9 | 8.2 | 12.2 | 10.1 | 4.5 | 12.7 | 9.6 | 8.6 | 4.3 | 0.85 |
| COc1ncc(-c2ccc3nccc(-c4ccnnc4)c3c2)cc1NS(=O)(=O)c1ccc(F)cc1F [Omipalisib] | 13.9 | 24.2 | 23.9 | 19.1 | 18.4 | 24.2 | 20.6 | 22.1 | 15.2 | 8.5 |
| CCCCC(=O)OCC(=O)[C@]1(O)Cc2c(O)c3c(c(O)c2[C@@H](O[C@H]2C[C@H](NC(=O)C(F)(F)F)[C@H](O)[C@H](C)O2)C1)C(=O)c1c(OC)cccc1C3=O [Valrubicin] | 7.8 | 9.1 | 9.2 | 7.1 | 5.3 | 6.8 | 6.5 | 9 | 5.1 | 7 |
| CC[C@]1(O)C[C@H]2CN(CCc3c([nH]c4ccccc34)[C@@](C(=O)OC)(c3cc4c(cc3OC)N(C=O)[C@H]3[C@@](O)(C(=O)OC)[C@H](OC(C)=O)[C@]5(CC)C=CCN6CC[C@]43[C@@H]65)C2)C1 [Vincristine] | 5.9 | 9.4 | 15.4 | 12.5 | 6.2 | 4.7 | 3.4 | 13 | 0.3 | 5.05 |
| CCC1=C[C@@H]2CN(C1)Cc1c([nH]c3ccccc13)[C@@](C(=O)OC)(c1cc3c(cc1OC)N(C)[C@H]1[C@@](O)(C(=O)OC)[C@H](OC(C)=O)[C@]4(CC)C=CCN5CC[C@]31[C@@H]54)C2 [Vinorelbine] | 16.3 | 17.7 | 23.1 | 17.9 | 17.9 | 14.8 | 17.1 | 17.8 | 2.4 | 6.6 |
| O=C(Nc1ccc2[nH]nc(-c3ccncc3)c2c1)[C@@H]1CCN(CC(=O)N2CCN(c3ccc(-c4ncccn4)cc3)CC2)C1 | 11.8 | 16.6 | 16.8 | 9.6 | 18.4 | 14.3 | 14.9 | 18 | 1.1 | 3.15 |
| CC[C@]1(O)C[C@@H]2CN(CCc3c([nH]c4ccccc34)[C@@](C(=O)OC)(c3cc4c(cc3OC)N(C)[C@H]3[C@@](O)(C(=O)OC)[C@H](OC(C)=O)[C@]5(CC)C=CCN6CC[C@]43[C@@H]65)C2)C1 [Vinblastine] | 6.8 | 10.9 | 17.2 | 8.3 | 7.5 | 3.7 | 2.4 | 15.9 | 0 | 0.45 |
| Cn1c(=O)n(-c2ccc(C(C)(C)C#N)cc2)c2c3cc(-c4cnc5ccccc5c4)ccc3ncc21 [Dactolisib] | 13 | 22.7 | 23 | 14.4 | 16.2 | 22.1 | 15.6 | 23.2 | 13.1 | 11.1 |
| COC(=O)C[C@](O)(CCCC(C)(C)O)C(=O)O[C@@H]1C(OC)=C[C@]23CCCN2CCc2cc4c(cc2[C@H]13)OCO4 [Omacetaxine] | 15.3 | 23.8 | 23.8 | 19.1 | 16.7 | 20.2 | 19 | 24.6 | 21.9 | 23.6 |
